Earlier results, collected in US11957727B2, “Prevention of neuroinflammation associated memory loss using nutraceutical compositions” (priority 2020, dated 2024).
Like-named read-outs stand apart in the source and are kept apart here.

Legend:
[1] = system: Nrf2 (+/+) primary peritoneal macrophages
[2] = system: myocardial ischemia and reperfusion; conditions: 10 mg/kg intravenously then 10 mg/kg/h infusion, rats
ulcerative colitis (UC) = conditions: 50 and 100 mg/kg/day
[3] = animal studies
[4] = system: human umbilical vein VECs (HUVECs)
[5] = system: endothelium of atherosclerotic plaque; conditions: PT injection, apoE(−/−) mice
[6] = system: sepsis induction with live Escherichia coli / endotoxin (LPS 0111:B4); conditions: for concentration of IL-la: controls 1187.0±278.64 pg/ml
nitric oxide = conditions: lipopolysaccharide-induced
[7] = 50 mg/kg, LPS 5 mg/kg 3 days later

## C[S+]([O-])CCCCN=C=S (stereo not shown) [sulforaphane, 1-isothiocyanato-4-(methylsulfinyl)-butane]
[1]; LPS-stimulated Nrf2 (+/+) macrophages
  HO-1 expression: significantly augmented
[1]; pretreatment, Nrf2 (+/+) macrophages
  LPS-stimulated mRNA expression, protein expression and production of TNF-alpha, IL-1beta, COX-2 and iNOS: potently inhibited
LPS-induced ARDS; [7]
  lactate dehydrogenase (LDH) activity: significantly decreased
  wet-to-dry ratio of the lungs: significantly decreased
LPS-induced ARDS; 50 mg/kg, LPS 5 mg/kg 3 days later, ELISA
  serum levels of interleukin-6 (IL-6) and tumor necrosis factor-α (TNF-α): significantly decreased
LPS-induced ARDS; mice with LPS-induced ALI
  prostaglandin E2 (PGE2) production: significantly inhibited

## Epigallocatechin-3-gallate [EGCG]
[2]
  myocardial damage and myeloperoxidase activity: reduced
  plasma IL-6 and creatine phosphokinase levels: decreased
Ulcerative colitis (UC)
  release of IL-6 and IL-17: reduce

## trans-3,5-dimethoxy-4-hydroxystilbene [pterostilbene]
[3]
  bioavailability: 80%
[4]; HUVECs, oxLDL 200 μg/ml
  protection against oxLDL-induced cell shrinkage, chromatin condensation, nuclear fragmentation and apoptosis: protected against such injuries
[4]; in vitro and in vivo
  expression of lectin-like oxLDL receptor-1 (LOX-1): inhibited
[5]
  number of TUNEL-positive cells: strongly decreased

## CC1=CC(=O)C(C(C)C)=CC1=O [thymoquinone]
[6]; 0.75 mg/kg thymoquinone dose
  concentration of IL-la: 310.8 ± 70.93 pg/mL
[6]; 0.75 mg/kg thymoquinone, controls 5505.2±333.96 pg/ml
  IL-10 levels: 2885.0 ± 553.98 pg/mL
[6]; 1 mg/kg group
  concentration of IL-la: 428.3 ± 71.32 pg/mL
[6]; P values=0.1817 and 0.0851
  levels of TNF-α and IL-2: relatively lower levels
[6]; mice, thymoquinone before LPS or live E. coli challenge
  reduction of mortality: 80-90%
Nitric oxide
  concentration of nitric oxide: reduced significantly
